Results from PubChem BioAssay (NCI).
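The compound was tested at five concentrations on cells cultured in 96-well plates, with a 48-hour exposure period. GI50: concentration for 50% inhibition of growth. TGI denotes the concentration required for complete inhibition of growth.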

Assays:
Assay in all cases: NCI tumour cell line growth inhibition, 48 h
EKVX NSCLC = system: EKVX NSCLC
HT29 colon = system: HT29 colon
SF-539 CNS = system: SF-539 CNS
HOP-92 NSCLC = system: HOP-92 NSCLC
U251 CNS = system: U251 CNS
SK-MEL-2 melanoma = system: SK-MEL-2 melanoma
ACHN renal = system: ACHN renal
K-562 leukemia = system: K-562 leukemia
HCT-116 colon = system: HCT-116 colon
SNB-75 CNS = system: SNB-75 CNS
HOP-62 NSCLC = system: HOP-62 NSCLC
SNB-19 CNS = system: SNB-19 CNS
MALME-3M melanoma = system: MALME-3M melanoma
MDA-MB-231 breast = system: MDA-MB-231 breast
OVCAR-5 ovarian = system: OVCAR-5 ovarian
SR leukemia = system: SR leukemia
A549 NSCLC = system: A549 NSCLC
SN12C renal = system: SN12C renal
SW-620 colon = system: SW-620 colon
UACC-62 melanoma = system: UACC-62 melanoma
NCI/ADR-RES ovarian = system: NCI/ADR-RES ovarian
M14 melanoma = system: M14 melanoma
CAKI-1 renal = system: CAKI-1 renal
SK-OV-3 ovarian = system: SK-OV-3 ovarian
PC-3 prostate = system: PC-3 prostate
HCC-2998 colon = system: HCC-2998 colon
DU-145 prostate = system: DU-145 prostate
786-0 renal = system: 786-0 renal
BT-549 breast = system: BT-549 breast
SF-295 CNS = system: SF-295 CNS
HCT-15 colon = system: HCT-15 colon
MDA-MB-435 = system: MDA-MB-435
IGROV1 ovarian = system: IGROV1 ovarian
KM12 colon = system: KM12 colon
SK-MEL-5 melanoma = system: SK-MEL-5 melanoma
OVCAR-8 ovarian = system: OVCAR-8 ovarian
NCI-H460 lung = system: NCI-H460 lung
UACC-257 melanoma = system: UACC-257 melanoma
MDA-N = system: MDA-N
RXF 393 renal = system: RXF 393 renal
MCF7 breast = system: MCF7 breast
UO-31 renal = system: UO-31 renal
OVCAR-4 ovarian = system: OVCAR-4 ovarian
LOX IMVI melanoma = system: LOX IMVI melanoma
RPMI-8226 leukemia = system: RPMI-8226 leukemia
NCI-H23 lung = system: NCI-H23 lung
SF-268 CNS = system: SF-268 CNS
CCRF-CEM leukemia = system: CCRF-CEM leukemia
OVCAR-3 ovarian = system: OVCAR-3 ovarian
HS 578T breast = system: HS 578T breast
NCI-H522 lung = system: NCI-H522 lung
SK-MEL-28 melanoma = system: SK-MEL-28 melanoma
COLO 205 colon = system: COLO 205 colon
TK-10 renal = system: TK-10 renal
MOLT-4 leukemia = system: MOLT-4 leukemia
NCI-H226 lung = system: NCI-H226 lung
HL-60(TB) leukemia = system: HL-60(TB) leukemia

Q: Which results are given for COc1ccc(/C=N/N=C(\[O-])c2ccncc2)cc1F.COc1ccc(/C=N\N=C(/[O-])c2ccncc2)cc1F.[Cu+2]?
A: GI50 (EKVX NSCLC): 24.3 µM; TGI (EKVX NSCLC): 76.3 µM; GI50 (HT29 colon): 24.1 µM; TGI (HT29 colon): 69 µM; GI50 (SF-539 CNS): 17.8 µM; TGI (SF-539 CNS): 37.1 µM; GI50 (HOP-92 NSCLC): 19.1 µM; TGI (HOP-92 NSCLC): 38.6 µM; GI50 (U251 CNS): 19.4 µM; TGI (U251 CNS): 35.8 µM; GI50 (SK-MEL-2 melanoma): 23 µM; TGI (SK-MEL-2 melanoma): 53.2 µM; GI50 (ACHN renal): 39.5 µM; TGI (ACHN renal): > 100 µM; GI50 (K-562 leukemia): 24.6 µM; TGI (K-562 leukemia): > 100 µM; GI50 (HCT-116 colon): 27 µM; TGI (HCT-116 colon): > 100 µM; GI50 (SNB-75 CNS): 14.6 µM; TGI (SNB-75 CNS): 28.2 µM; GI50 (HOP-62 NSCLC): 20.3 µM; TGI (HOP-62 NSCLC): 41 µM; GI50 (SNB-19 CNS): 17.8 µM; TGI (SNB-19 CNS): 35.7 µM; GI50 (MALME-3M melanoma): 25.9 µM; TGI (MALME-3M melanoma): > 100 µM; GI50 (MDA-MB-231 breast): 32.4 µM; TGI (MDA-MB-231 breast): > 100 µM; GI50 (OVCAR-5 ovarian): 18.6 µM; TGI (OVCAR-5 ovarian): 32.7 µM; GI50 (SR leukemia): 16.8 µM; TGI (SR leukemia): 69.6 µM; GI50 (A549 NSCLC): 27.3 µM; TGI (A549 NSCLC): > 100 µM; GI50 (SN12C renal): 40.4 µM; TGI (SN12C renal): > 100 µM; GI50 (SW-620 colon): 35.7 µM; TGI (SW-620 colon): > 100 µM; GI50 (UACC-62 melanoma): 23.8 µM; TGI (UACC-62 melanoma): 52.8 µM; GI50 (NCI/ADR-RES ovarian): 13.4 µM; TGI (NCI/ADR-RES ovarian): 28.8 µM; GI50 (M14 melanoma): 47.2 µM; TGI (M14 melanoma): > 100 µM; GI50 (CAKI-1 renal): 38.6 µM; TGI (CAKI-1 renal): > 100 µM; GI50 (SK-OV-3 ovarian): 11.8 µM; TGI (SK-OV-3 ovarian): 24.1 µM; GI50 (PC-3 prostate): 16.8 µM; TGI (PC-3 prostate): 35.1 µM; GI50 (HCC-2998 colon): 32.9 µM; TGI (HCC-2998 colon): > 100 µM; GI50 (DU-145 prostate): 32 µM; TGI (DU-145 prostate): > 100 µM; GI50 (786-0 renal): 20.2 µM; TGI (786-0 renal): 44.3 µM; GI50 (BT-549 breast): 20.5 µM; TGI (BT-549 breast): 37.1 µM; GI50 (SF-295 CNS): 11.2 µM; TGI (SF-295 CNS): 26.5 µM; GI50 (HCT-15 colon): 52.6 µM; TGI (HCT-15 colon): > 100 µM; GI50 (MDA-MB-435): 62.1 µM; TGI (MDA-MB-435): > 100 µM; GI50 (IGROV1 ovarian): 17.6 µM; TGI (IGROV1 ovarian): 40.2 µM; GI50 (KM12 colon): 16.2 µM; TGI (KM12 colon): 39 µM; GI50 (SK-MEL-5 melanoma): 26 µM; TGI (SK-MEL-5 melanoma): 80.4 µM; GI50 (OVCAR-8 ovarian): 13.8 µM; TGI (OVCAR-8 ovarian): 27.5 µM; GI50 (NCI-H460 lung): 13.6 µM; TGI (NCI-H460 lung): 26.5 µM; GI50 (UACC-257 melanoma): 17.9 µM; TGI (UACC-257 melanoma): 40.2 µM; GI50 (MDA-N): 32.7 µM; TGI (MDA-N): > 100 µM; GI50 (RXF 393 renal): 18.9 µM; TGI (RXF 393 renal): 32.9 µM; GI50 (MCF7 breast): 17.9 µM; TGI (MCF7 breast): 35 µM; GI50 (UO-31 renal): 64.4 µM; TGI (UO-31 renal): > 100 µM; GI50 (OVCAR-4 ovarian): 18.5 µM; TGI (OVCAR-4 ovarian): 34.5 µM; GI50 (LOX IMVI melanoma): 68.8 µM; TGI (LOX IMVI melanoma): > 100 µM; GI50 (RPMI-8226 leukemia): 40.1 µM; TGI (RPMI-8226 leukemia): > 100 µM; GI50 (NCI-H23 lung): 25.4 µM; TGI (NCI-H23 lung): 58.2 µM; GI50 (SF-268 CNS): 25.9 µM; TGI (SF-268 CNS): 86.3 µM; GI50 (CCRF-CEM leukemia): 22 µM; TGI (CCRF-CEM leukemia): 68.9 µM; GI50 (OVCAR-3 ovarian): 27.3 µM; TGI (OVCAR-3 ovarian): 82.9 µM; GI50 (HS 578T breast): 18 µM; TGI (HS 578T breast): 60 µM; GI50 (NCI-H522 lung): 12.7 µM; TGI (NCI-H522 lung): 26.1 µM; GI50 (SK-MEL-28 melanoma): 37.9 µM; TGI (SK-MEL-28 melanoma): > 100 µM; GI50 (COLO 205 colon): 19.7 µM; TGI (COLO 205 colon): 42.2 µM; GI50 (TK-10 renal): 19.9 µM; TGI (TK-10 renal): 48 µM; GI50 (MOLT-4 leukemia): 26 µM; TGI (MOLT-4 leukemia): > 100 µM

Q: How did the TGI (EKVX NSCLC) turn out when COc1ccccc1NCC(=O)Nn1c(C)nc2ccc(S(=O)(=O)Nc3ccccc3OC)cc2c1=O was run?
A: > 100 µM

Q: What about the TGI (HT29 colon) of the same compound?
A: > 100 µM

Q: And the TGI (SF-539 CNS)?
A: > 100 µM

Q: And the TGI (HOP-92 NSCLC)?
A: > 100 µM

Q: What about the TGI (U251 CNS) of the same compound?
A: > 100 µM

Q: And the TGI (SK-MEL-2 melanoma)?
A: > 100 µM

Q: And the TGI (ACHN renal)?
A: > 100 µM

Q: What about the TGI (K-562 leukemia) of the same compound?
A: > 100 µM

Q: What about the TGI (HCT-116 colon) of the same compound?
A: > 100 µM

Q: And the TGI (SNB-75 CNS)?
A: > 100 µM

Q: What about the TGI (HOP-62 NSCLC) of the same compound?
A: > 100 µM

Q: What about the TGI (SNB-19 CNS) of the same compound?
A: > 100 µM

Q: What about the TGI (MALME-3M melanoma) of the same compound?
A: > 100 µM

Q: What about the TGI (NCI-H226 lung) of the same compound?
A: > 100 µM

Q: What about the TGI (MDA-MB-231 breast) of the same compound?
A: > 100 µM

Q: What about the TGI (OVCAR-5 ovarian) of the same compound?
A: > 100 µM

Q: And the TGI (SR leukemia)?
A: > 100 µM

Q: And the TGI (A549 NSCLC)?
A: > 100 µM

Q: What about the TGI (SN12C renal) of the same compound?
A: > 100 µM

Q: And the TGI (SW-620 colon)?
A: > 100 µM

Q: What about the TGI (UACC-62 melanoma) of the same compound?
A: > 100 µM

Q: What about the TGI (NCI/ADR-RES ovarian) of the same compound?
A: > 100 µM

Q: What about the TGI (M14 melanoma) of the same compound?
A: > 100 µM

Q: And the TGI (CAKI-1 renal)?
A: > 100 µM

Q: And the TGI (SK-OV-3 ovarian)?
A: > 100 µM

Q: And the TGI (PC-3 prostate)?
A: > 100 µM

Q: And the TGI (HCC-2998 colon)?
A: > 100 µM

Q: And the TGI (DU-145 prostate)?
A: > 100 µM

Q: What about the TGI (786-0 renal) of the same compound?
A: > 100 µM

Q: And the TGI (BT-549 breast)?
A: > 100 µM

Q: What about the TGI (SF-295 CNS) of the same compound?
A: > 100 µM

Q: And the TGI (HCT-15 colon)?
A: > 100 µM

Q: What about the TGI (MDA-MB-435) of the same compound?
A: 85.2 µM

Q: What about the TGI (HL-60(TB) leukemia) of the same compound?
A: > 100 µM

Q: What about the TGI (IGROV1 ovarian) of the same compound?
A: > 100 µM

Q: What about the TGI (KM12 colon) of the same compound?
A: > 100 µM

Q: And the TGI (OVCAR-8 ovarian)?
A: > 100 µM

Q: What about the TGI (NCI-H460 lung) of the same compound?
A: > 100 µM

Q: What about the TGI (UACC-257 melanoma) of the same compound?
A: > 100 µM

Q: What about the TGI (MDA-N) of the same compound?
A: > 100 µM

Q: And the TGI (MCF7 breast)?
A: > 100 µM

Q: What about the TGI (UO-31 renal) of the same compound?
A: > 100 µM

Q: And the TGI (OVCAR-4 ovarian)?
A: > 100 µM

Q: And the TGI (LOX IMVI melanoma)?
A: > 100 µM

Q: And the TGI (RPMI-8226 leukemia)?
A: > 100 µM

Q: And the TGI (NCI-H23 lung)?
A: > 100 µM

Q: And the TGI (SF-268 CNS)?
A: > 100 µM

Q: What about the TGI (CCRF-CEM leukemia) of the same compound?
A: > 100 µM

Q: And the TGI (OVCAR-3 ovarian)?
A: > 100 µM

Q: What about the TGI (HS 578T breast) of the same compound?
A: > 100 µM

Q: What about the TGI (NCI-H522 lung) of the same compound?
A: > 100 µM

Q: And the TGI (SK-MEL-28 melanoma)?
A: > 100 µM

Q: What about the TGI (COLO 205 colon) of the same compound?
A: > 100 µM

Q: And the TGI (TK-10 renal)?
A: > 100 µM

Q: What about the TGI (MOLT-4 leukemia) of the same compound?
A: > 100 µM
